Measurements: patent publication US20220281848A1, “PYRAZOLE-SUBSTITUTED PYRROLIDINONES AS HERBICIDES” (FMC Corporation, priority 2019, published 2022)

System: plants
Assay: Test D post-emergence, other plants of Tables D2 and D4
Format: in vivo
Summary of the method: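 Seeds treated with herbicide safener; sown in soil; glasshouse, 16 h light, 65% humidity. Sprayed day 1 (pre) or ~day 12 (post). Spray in 0.2% v/v adjuvant. Scored 0–100 damage: 20 DAA pre, 15 d post.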

[1] = "Cereals" Postemergent, Rates 130, evaluated after 15 d
[2] = "Cereals" Postemergent, Rates 250, evaluated after 15 d
[3] = "Cereals" Postemergent, Rates 500, evaluated after 15 d
[4] = post-emergence, rate 130, evaluated after 15 d
[5] = post-emergence, rate 250, evaluated after 15 d
[6] = post-emergence, rate 500, evaluated after 15 d

CN1CC(c2cc(C(F)(F)F)n(C)n2)C(C(=O)Nc2cccc(F)c2C(F)(F)F)C1=O (racemic) [Compound 19]
ALOMY damage rating (100=total damage to plant; 0=no damage to plant) [1]: 0
ALOMY damage rating (100=total damage to plant; 0=no damage to plant) [2]: 0
ALOMY damage rating (100=total damage to plant; 0=no damage to plant) [3]: 30
AVEFA damage rating (100=total damage to plant; 0=no damage to plant) [1]: 0
AVEFA damage rating (100=total damage to plant; 0=no damage to plant) [2]: 10
AVEFA damage rating (100=total damage to plant; 0=no damage to plant) [3]: 40
BEAVA damage rating (100=total damage to plant; 0=no damage to plant) [1]: 0
BEAVA damage rating (100=total damage to plant; 0=no damage to plant) [2]: 10
BEAVA damage rating (100=total damage to plant; 0=no damage to plant) [3]: 10
BROTE damage rating (100=total damage to plant; 0=no damage to plant) [1]: 0
BROTE damage rating (100=total damage to plant; 0=no damage to plant) [2]: 0
BROTE damage rating (100=total damage to plant; 0=no damage to plant) [3]: 0
BRSNN damage rating (100=total damage to plant; 0=no damage to plant) [1]: 0
BRSNN damage rating (100=total damage to plant; 0=no damage to plant) [2]: 20
BRSNN damage rating (100=total damage to plant; 0=no damage to plant) [3]: 10
CHEAL damage rating (100=total damage to plant; 0=no damage to plant) [1]: 0
CHEAL damage rating (100=total damage to plant; 0=no damage to plant) [2]: 0
CHEAL damage rating (100=total damage to plant; 0=no damage to plant) [3]: 40
GALAP damage rating (100=total damage to plant; 0=no damage to plant) [1]: 0
GALAP damage rating (100=total damage to plant; 0=no damage to plant) [2]: 0
GALAP damage rating (100=total damage to plant; 0=no damage to plant) [3]: 20
HORVW damage rating (100=total damage to plant; 0=no damage to plant) [1]: 0
HORVW damage rating (100=total damage to plant; 0=no damage to plant) [2]: 0
HORVW damage rating (100=total damage to plant; 0=no damage to plant) [3]: 40
KCHSC damage rating (100=total damage to plant; 0=no damage to plant) [1]: 0
KCHSC damage rating (100=total damage to plant; 0=no damage to plant) [2]: 0
KCHSC damage rating (100=total damage to plant; 0=no damage to plant) [3]: 0
LOLPE damage rating (100=total damage to plant; 0=no damage to plant) [1]: 0
LOLPE damage rating (100=total damage to plant; 0=no damage to plant) [2]: 0
LOLPE damage rating (100=total damage to plant; 0=no damage to plant) [3]: 10
POAAN damage rating (100=total damage to plant; 0=no damage to plant) [1]: 0
POAAN damage rating (100=total damage to plant; 0=no damage to plant) [2]: 30
POAAN damage rating (100=total damage to plant; 0=no damage to plant) [3]: 40
POLCO damage rating (100=total damage to plant; 0=no damage to plant) [1]: 0
POLCO damage rating (100=total damage to plant; 0=no damage to plant) [2]: 0
POLCO damage rating (100=total damage to plant; 0=no damage to plant) [3]: 0
SINAR damage rating (100=total damage to plant; 0=no damage to plant) (SINAR, "Cereals" Postemergent, Rates 500, evaluated after 15 d): 20
STEME damage rating (100=total damage to plant; 0=no damage to plant) [1]: 0
STEME damage rating (100=total damage to plant; 0=no damage to plant) [2]: 0
STEME damage rating (100=total damage to plant; 0=no damage to plant) [3]: 0
VERPE damage rating (100=total damage to plant; 0=no damage to plant) [1]: 0
VERPE damage rating (100=total damage to plant; 0=no damage to plant) [2]: 0
VERPE damage rating (100=total damage to plant; 0=no damage to plant) [3]: 10
damage to plant (100=total damage to plant; 0=no damage to plant), ABUTH [4]: 0
damage to plant (100=total damage to plant; 0=no damage to plant), ABUTH [5]: 10
damage to plant (100=total damage to plant; 0=no damage to plant), ABUTH [6]: 20
damage to plant (100=total damage to plant; 0=no damage to plant), AMARE [4]: 0
damage to plant (100=total damage to plant; 0=no damage to plant), AMARE [5]: 10
damage to plant (100=total damage to plant; 0=no damage to plant), AMARE [6]: 20
damage to plant (100=total damage to plant; 0=no damage to plant), BIDPI (post-emergence, BIDPI, rate 130, evaluated after 15 d): 0
